Structures are written as SMILES.

The target of this assay is T1, GLP-1R (Homo sapiens, UniProt P43220).
T1 construct: host or cells: GLP-1R CRE-bla CHO-K1 cells
T1 sequence (P43220 24-463): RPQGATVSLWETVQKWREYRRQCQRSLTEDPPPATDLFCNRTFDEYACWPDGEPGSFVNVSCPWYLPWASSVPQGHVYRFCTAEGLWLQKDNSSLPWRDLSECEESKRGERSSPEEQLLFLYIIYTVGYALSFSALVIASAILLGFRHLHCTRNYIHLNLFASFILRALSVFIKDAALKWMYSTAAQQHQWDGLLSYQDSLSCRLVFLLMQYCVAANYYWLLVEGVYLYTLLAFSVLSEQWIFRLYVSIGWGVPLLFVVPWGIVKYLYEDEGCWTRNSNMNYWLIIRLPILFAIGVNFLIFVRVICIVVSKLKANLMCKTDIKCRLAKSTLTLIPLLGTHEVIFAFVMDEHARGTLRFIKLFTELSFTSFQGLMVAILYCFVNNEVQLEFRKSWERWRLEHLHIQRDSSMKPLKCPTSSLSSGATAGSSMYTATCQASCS
T1 sequence (P01275 100-127 partner limits assumed): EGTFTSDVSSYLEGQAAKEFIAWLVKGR
The experiment in a line: EC20 GLP-1(9-36) PAM cAMP assay: dose response of compound in the presence of fixed concentration of GLP-1(9-36). In kind it is cell-based. The following applies: dose response of compound in presence of fixed concentration of GLP-1(9-36), GLP-1R CRE-bla CHO-K1 cells, read-out: EC20 GLP-1(9-36) PAM EC50. Here is the method:
EC20 GLP-1(9-36) PAM cAMP Assay: Dose Response of Compound in the Presence of Fixed Concentration of GLP-1 (9-36).
GLP-1R CRE-bla CHO-K1 cells cultured in growth medium (DMEM-High glucose, 10% dialyzed FBS, 0.1 mM NEAA, 25 mM Hepes, 100 U/mL penicillin/100 μg/mL streptomycin, 5 μg/mL Blasticidin, 600 μg/mL Hygromycin) were trypsinized and plated in suspension into 384 well white flat bottom plates at 5000 cells/well in 12 μL assay buffer (Hanks Balanced Salt solution, 10 mM hepes, 0.1% BSA, pH 7.4). A 5× compound dose response curve (12-point) was generated in assay buffer containing 1.5 mM IBMX, 4% DMSO. GLP-1(9-36) was diluted to 4.2 μM in assay buffer containing 1.5 mM IMBX and 4% DMSO. The 5× compound dose response was added (3 μL), followed by 0.5 μL of GLP-1(9-36) and cells were incubated for 30 min at 37° C. Direct detection of cAMP was carried out using DiscoveRx HitHunter cAMP kit according to manufacturer's instructions and luminescence was read using a SpectraMax M5 plate reader. Luminescence was converted to total cAMP using a cAMP standard curve and data was analyzed by non-linear regression to determine the EC50 and Emax.
GLP-1(7-36): […]-NH2 (SEQ ID NO: 2). GLP-1(9-36): […]-NH2 (SEQ ID NO: 3). GLP-1(7-36) was purchased from GenScript. GLP-1(9-36) was purchased from Biopeptide Co., Inc.
The EC20GLP-1(9-36) PAM Activity range is denoted as follows: + denotes activity <0.8 μM, ++ denotes activity between 0.8 and 2.5 μM, +++ denotes activity between 2.5 and 5 μM, and ++++ denotes activity 5 to 10 μM.
(Changes in cAMP serve as a functional read-out for many G protein-coupled receptors.)
The EC50 is the concentration that produces a half-maximal response. Regarding `CCCCCCCOc1ccc(-c2cnc(-c3ccc(CC(NC(=O)c4ccc(C(C)(C)C)s4)C(=O)N[C@H](C(=O)O)C(C)C)cc3)nc2)cc1` (stereo partly drawn) [Compound 407], the EC50 is less than 800 nM.

With `CCCCCCCOc1ccc(-c2cnc(-c3ccc(CC(NC(=O)c4ccc(C(C)(C)C)s4)C(=O)N[C@@H](CC(C)C)C(=O)O)cc3)nc2)cc1` (stereo partly drawn) [Compound 408], the EC50 was 800 to 2500 nM.

In the case of `CCCCCCCOc1ccc(-c2cnc(-c3ccc(C[C@H](NC(=O)c4ccc(C(C)(C)C)cc4)C(=O)NC(C)(C)C(=O)O)cc3)nc2)cc1` [Compound 409], the EC50 lay in the range of 800 to 2500 nM.

`CCCCCCCOc1ccc(-c2cnc(-c3ccc(C[C@H](NC(=O)c4ccc(C(C)(C)C)s4)C(=O)N[C@@H](CCN)C(=O)O)cc3)nc2)cc1` [Compound 410, (S)-4-amino-2-((S)-2-(5-(tert-butyl)thiophene-2-carboxamido)-3-(4-(5-(4-(heptyloxy)phenyl)pyrimidin-2-yl)phenyl)propanamido)butanoic acid]: the concentration for a half-maximal effect (EC50) lay within 800 to 2500 nM.

With `CCCCCCCOc1ccc(-c2cnc(-c3ccc(C[C@H](NC(=O)c4ccc(C(C)(C)C)s4)C(=O)N[C@H](CCN)C(=O)O)cc3)nc2)cc1` [Compound 411], the EC50 is 800 to 2500 nM.

Take `CCCCCCCOc1ccc(-c2cnc(-c3ccc(C[C@H](NC(=O)c4ccc(C(C)(C)C)s4)C(=O)NC(C(=O)O)c4ccco4)cc3)nc2)cc1` (stereo partly drawn) [Compound 412]: the 50% effective concentration (EC50) was less than 800 nM.

On to `CCCCCCCOc1ccc(-c2cnc(-c3ccc(CC(NC(=O)c4ccc(C(C)(C)C)s4)C(=O)N[C@H](C(=O)O)[C@@H](C)CC)cc3)nc2)cc1` (stereo partly drawn) [Compound 414], for which the EC50 is less than 800 nM.

Take `CCCCCCCOc1ccc(-c2cnc(-c3ccc(CC(NC(=O)c4ccc(C(C)(C)C)s4)C(=O)N[C@@H](Cc4ccccc4)C(=O)O)cc3)nc2)cc1` (stereo partly drawn) [Compound 415]: the EC50 is less than 800 nM.

As for `CCCCCCCOc1ccc(-c2cnc(-c3ccc(CC(NC(=O)c4ccc(C(C)(C)C)s4)C(=O)N[C@@H](CCSC)C(=O)O)cc3)nc2)cc1` (stereo partly drawn) [Compound 416], the 50% effective concentration (EC50) is less than 800 nM.

Consider `CCCCCCCOc1ccc(-c2cnc(-c3ccc(C[C@H](NC(=O)c4ccc(C(C)(C)C)cc4)C(=O)N[C@H](CO)C(=O)O)cc3)nc2)cc1` [Compound 417], for which the EC50 is less than 800 nM.

Regarding `CCCCCCCOc1ccc(-c2cnc(-c3ccc(C[C@H](NC(=O)c4ccc(C(C)(C)C)cc4)C(=O)N[C@@H](CO)C(=O)O)cc3)nc2)cc1` [Compound 418], the EC50 was less than 800 nM.

`CCCCCCCOc1ccc(-c2cnc(-c3ccc(C[C@H](NC(=O)c4ccc(C(C)(C)C)s4)C(=O)NS(C)(=O)=O)cc3)nc2)cc1` [Compound 419]: the EC50 was less than 800 nM.

For the molecule `CCCCCCCOc1ccc(-c2cnc(-c3ccc(C[C@H](NC(=O)c4ccc(C(C)(C)C)s4)C(=O)NS(=O)(=O)CC)cc3)nc2)cc1` [Compound 420], the EC50 was less than 800 nM.

Turning to `CCCCCCCOc1ccc(-c2cnc(-c3ccc(C[C@H](NC(=O)c4ccc(C(C)(C)C)s4)C(=O)NS(N)(=O)=O)cc3)nc2)cc1` [Compound 421], the EC50 is 800 to 2500 nM.

On to `CCCCCCCOc1ccc(-c2cnc(-c3ccc(C[C@H](NC(=O)c4ccc(C(C)(C)C)s4)C(=O)NS(=O)(=O)CC(=O)OC)cc3)nc2)cc1` [Compound 422, methyl (S)-2-(N-(2-(5-(tert-butyl)thiophene-2-carboxamido)-3-(4-(5-(4-(heptyloxy)phenyl)pyrimidin-2-yl)phenyl)propanoyl)sulfamoyl)acetate], for which the EC50 is less than 800 nM.

Regarding `CCCCCCCOc1ccc(-c2cnc(-c3ccc(C[C@H](NC(=O)c4ccc(C(C)(C)C)s4)C(=O)NS(=O)(=O)c4ccccc4)cc3)nc2)cc1` [Compound 423], the concentration giving a half-maximal response (EC50) fell in the range of 800 to 2500 nM.

For the molecule `CCCCCCCOc1ccc(-c2cnc(-c3ccc(CC(NC(=O)c4ccc(C(C)(C)C)s4)C(=O)N[C@H](C(=O)O)[C@@H](C)O)cc3)nc2)cc1` (stereo partly drawn) [Compound 424], the EC50 is less than 800 nM.

For the molecule `CCCCCCCOc1ccc(-c2cnc(-c3ccc(CC(NC(=O)c4ccc(C(C)(C)C)s4)C(=O)N[C@@H](CCCNC(=N)N)C(=O)O)cc3)nc2)cc1` (stereo partly drawn) [Compound 425], the EC50 is 2500 to 5000 nM.
